# Measured values published in US20250223303A1, “TRICYCLIC BORONIC ACID DERIVATIVE, AND PREPARATION METHOD THEREFOR AND APPLICATION THEREOF” (priority 2021, published 2025).
# pIC50: −log10 of the molar value.
# Legend:
# [1] = system: Klebsiella pneumoniae ATCC BAA-1705; assay: MIC test of compounds in combination with antibiotics, Klebsiella pneumoniae ATCC BAA-1705; conditions: Klebsiella pneumoniae ATCC BAA-1705 KPC-2
# Method: Strain preparation: the strains to be tested were streaked from glycerol tube at −80° C. onto Mueller Hinton II Agar plates. The plates were then placed in a 37° C. incubator and cultured for 18-24 hours.
# Media preparation: CAMHB (Mueller Hinton II Broth): 22 g of powder was dissolved in 1 L of purified water and sterilized at 121° C. for 10 min for use. Saline: 8.5 g NaCl was dissolved in 1 L of pure water and sterilized at 121° C. for 30 min for use.
# Preparation of compound and antibiotic stock solutions: the compound and antibiotic were dissolved in DMSO or water to 12.8 mg/mL.
# (§15) 2-Fold gradient dilution of antibiotics: 300 μL of CAMHVIB medium was added to columns 2-12 of a 96-deep well plate. In column 1, 24 μL of antibiotic stock solution and 576 µL of CAMHB medium were added and mixed well, with a concentration of 512 μg/mL. 300 µL of antibiotic solution was transferred from the column 1 to the second column and mixed well. The process was repeated until column 11, and the column 12 was a blank control.
# (§16) Dilution of combined compounds: the compound was diluted 400-fold to 32 μg/ml with CAMHB medium.
# (§17) Working solution aliquoting: 25 μL of antibiotics was aliquoted into the 96-U bottom plate with a pipette, and 25 μL of combined compound was added to each well. If antibiotics were used alone, 25 μL of CAMHB medium was added.
# (§18) Inoculum solution preparation: 5-6 single colonies were selected from the plate and suspended in normal saline. The bacterial suspension was adjusted to 0.2 (i.e., 0.5 McFarland turbidity, with a bacterial concentration was about 1 to 2×10^8 CFU/mL) with a turbidity meter. The bacterial suspension was diluted 100-fold with CAMHB medium for later use.
# (§19) Inoculation: 50 μL of inoculum solution was transferred to the above 50 μL compound plate with a pipette.
# (§20) Culture: The 96-U bottom plate was placed in an incubator at 37° C. for 18 to 20 h.
# After the incubation, bacterial growth was visually observed, and the test plate was photographed and recorded.
# [2] = system: Acinetobacter baumannii ARLG-1809 OXA-23; assay: MIC test of compounds in combination with antibiotics, Acinetobacter baumannii ARLG-1809; conditions: Acinetobacter baumannii ARLG-1809 OXA-23
# Method: as §15, §16, §17, §18, §19, §20
# OXA-23 = target: T1, OXA-23 (Acinetobacter baumannii, UniProt Q9L4P2); assay: Enzyme activity test (FC5 fluorescent substrate), OXA-23; format: biochemical; conditions: enzyme 650 pM, substrate FC5 50 μM
# T1 construct: purchased GenScript Biotech Co., Ltd
# T1 sequence (Q9L4P2 18-273): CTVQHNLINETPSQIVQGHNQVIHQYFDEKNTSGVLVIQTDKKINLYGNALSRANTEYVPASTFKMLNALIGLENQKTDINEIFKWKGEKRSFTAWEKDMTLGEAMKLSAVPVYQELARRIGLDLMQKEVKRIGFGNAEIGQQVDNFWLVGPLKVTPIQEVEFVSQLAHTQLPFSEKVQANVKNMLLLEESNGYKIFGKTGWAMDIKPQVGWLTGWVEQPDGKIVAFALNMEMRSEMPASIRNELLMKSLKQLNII
# Method: (§1) Compound stock solution: the compound was prepared as a 50 mM DMSO stock solution. […] After aliquoting, the compound stock solutions were stored at −20° C.
# (§2) Preparation and storage of antibiotic substrate stock solution: antibiotic fluorescent substrate FC5 was synthesized internally and prepared as a 2 mM stock solution, which was stored at −20° C. after aliquoting.
# (§3) Storage of β-lactamases: each […] was synthesized by GenScript Biotech Co., Ltd., and stored at −80° C. after aliquoting to avoid repeated freezing and thawing.
# (§4) Preparation of enzyme activity reaction buffer: SBL buffer: PBS pH 7.4, 0.01% (v/v) Triton X-100; MBL buffer: 50 Mm HEPES in PBS pH 7.2, 1 μM ZnSO4, 1 μg/mL BSA, 0.010% v/v Triton X-100
# (§5) a) The compound to be tested and buffer were taken out and warmed to room temperature.
# (§6) b) Each compound was diluted with DMSO and buffer to the initial experimental concentration (Table 2), and then the compound was diluted 3-fold for a total of 10 concentrations.
# (§7) c) Diluted compounds were added to wells 1 to 20 of a 384-well black plate at 2 replicate wells per concentration, 5 μL per well. 5 µL of DMSO was added to wells 21 to 24.
# (§8) d) Each enzyme was diluted to the experimental concentration (Table 2) in SBL and MBL buffers, and finally 35 μL/well was added, with a total of 22 wells. 35 μL buffer was added to wells 23 to 24. Wells 21 to well 22 served as the maximum test values (Max), while wells 23 to 24 were designated as the minimum test values (Min).
# (§9) e) The 384-well plate was centrifuged quickly and incubated for 10 minutes at room temperature.
# (§10) f) The antibiotic substrate FC5 was diluted in buffer to the experimental concentration of each enzyme (Table 2).
# (§11) g) The incubated 384-well plate was taken out and FC-5 was added to wells […]. The 384-well plate was centrifuged rapidly and promptly transferred to a microplate reader for reading.
# (§12) h) The fluorescence intensity was measured at 355 nm excitation light/460 nm emission light in the microplate reader, and the fluorescence intensity was measured every three minutes for a total of 10 measurements.
# (§13) Initial velocity of enzyme reaction V: Subtract the background reading (Min wells) without enzyme from each fluorescence intensity reading, and then perform on a linear regression analysis on each compound concentration group. The slope is the initial velocity of enzyme reaction (V) at each compound concentration.
# (§14) Dose-effect curve and IC50 calculation of compounds: The initial velocity of enzyme reaction under the effect of each concentration of compounds was subjected to nonlinear regression fitting. The IC50 (half-maximal inhibitory concentration) of each compound was calculated using the formula […] (Vi: the initial velocity of enzyme reaction at each compound concentration; V0: initial velocity of enzyme reaction without the compound (Max wells). The software used was Graphpad prism 8.
# VIM-1 = target: T2, VIM-1 (Pseudomonas aeruginosa, UniProt A0A0F7KYQ8); assay: Enzyme activity test (FC5 fluorescent substrate), VIM-1; format: biochemical; conditions: enzyme 70 pM, substrate FC5 10 μM
# T2 construct: purchased GenScript Biotech Co., Ltd
# Method: as §1, §2, §3, §4, §5, §6, §7, §8, §9, §10, §11, §12, §13, §14
# OXA-10 = target: T3, OXA-10 (Pseudomonas aeruginosa, UniProt P14489); assay: Enzyme activity test (FC5 fluorescent substrate), OXA-10; format: biochemical; conditions: enzyme 350 pM, substrate FC5 50 μM
# T3 construct: purchased GenScript Biotech Co., Ltd
# T3 sequence (P14489 20-266): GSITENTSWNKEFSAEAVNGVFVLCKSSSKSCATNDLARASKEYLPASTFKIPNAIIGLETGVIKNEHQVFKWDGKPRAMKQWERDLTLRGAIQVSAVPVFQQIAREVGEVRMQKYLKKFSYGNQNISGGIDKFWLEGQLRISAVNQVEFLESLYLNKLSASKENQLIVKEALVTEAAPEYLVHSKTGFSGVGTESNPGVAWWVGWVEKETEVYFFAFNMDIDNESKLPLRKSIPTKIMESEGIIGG
# Method: as §1, §2, §3, §4, §5, §6, §7, §8, §9, §10, §11, §12, §13, §14
# [3] = system: Acinetobacter baumannii ARLG-1853 OXA-23; assay: MIC test of compounds in combination with antibiotics, Acinetobacter baumannii ARLG-1853; conditions: Acinetobacter baumannii ARLG-1853 OXA-23
# Method: as §15, §16, §17, §18, §19, §20
# [4] = system: Acinetobacter baumannii WX-AB005; assay: MIC test of compounds in combination with antibiotics, Acinetobacter baumannii WX-AB005; conditions: Acinetobacter baumannii WX-AB005
# Method: as §15, §16, §17, §18, §19, §20
# [5] = system: Acinetobacter baumannii ARLG-1791 OXA-23; assay: MIC test of compounds in combination with antibiotics, Acinetobacter baumannii ARLG-1791; conditions: Acinetobacter baumannii ARLG-1791 OXA-23
# Method: as §15, §16, §17, §18, §19, §20
# [6] = system: Klebsiella pneumoniae ARLG 1196; assay: MIC test of compounds in combination with antibiotics, Klebsiella pneumoniae ARLG 1196; conditions: Klebsiella pneumoniae ARLG-1196 CTM-1 group, SHV, NDM, TEM
# [7] = system: carbapenem-resistant Acinetobacter baumannii strains; assay: MIC test of compounds in combination with antibiotics, resistant Acinetobacter baumannii strains; conditions: all resistant strains of Acinetobacter baumannii
# Ampc = Ampc (UniProt P24735); assay: Enzyme activity test (FC5 fluorescent substrate), AmpC; format: biochemical; conditions: enzyme 25 pM, substrate FC5 15 μM
# Method: as §1, §2, §3, §4, §5, §6, §7, §8, §9, §10, §11, §12, §13, §14
# [8] = system: Klebsiella pneumoniae ATCC BAA-2470; assay: MIC test of compounds in combination with antibiotics, Klebsiella pneumoniae ATCC BAA-2470; conditions: Klebsiella pneumoniae ATCC BAA-2470 NDM-1
# OXA-48 = target: T4, OXA-48 (Klebsiella pneumoniae, UniProt Q6XEC0); assay: Enzyme activity test (FC5 fluorescent substrate), OXA-48; format: biochemical; conditions: enzyme 650 pM, substrate FC5 125 μM
# T4 construct: purchased GenScript Biotech Co., Ltd
# T4 sequence (Q6XEC0 23-265 limits assumed): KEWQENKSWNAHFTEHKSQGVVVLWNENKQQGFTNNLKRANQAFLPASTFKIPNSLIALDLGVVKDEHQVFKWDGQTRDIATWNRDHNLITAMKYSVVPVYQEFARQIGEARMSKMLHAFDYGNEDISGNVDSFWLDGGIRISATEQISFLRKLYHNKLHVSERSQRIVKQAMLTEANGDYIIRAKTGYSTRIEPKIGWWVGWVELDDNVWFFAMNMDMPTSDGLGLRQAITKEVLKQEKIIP
# Method: as §1, §2, §3, §4, §5, §6, §7, §8, §9, §10, §11, §12, §13, §14
# [9] = system: Acinetobacter baumannii WX-AB013; assay: MIC test of compounds in combination with antibiotics, Acinetobacter baumannii WX-AB013; conditions: Acinetobacter baumannii WX-AB013
# Method: as §15, §16, §17, §18, §19, §20
structure (smiles),measurement,setting,value
"NCCNC1CCC(CC(=O)N[C@H]2Cc3cccc(C(=O)O)c3OB2O)CC1 (stereo partly shown) [VNRX-5133, reference compound]",MIC,[1]; Cefepime + compound (8 μg/mL),0.25 µg/mL
same,MIC,[1]; Meropenem + compound (8 μg/mL),0.125 µg/mL
same,MIC,[2]; Cefepime + compound (8 μg/mL),32 µg/mL
same,MIC,[2]; Meropenem + compound (8 μg/mL),128 µg/mL
same,pIC50,OXA-23,< 5.00
same,pIC50,VIM-1,7.48
same,pIC50,OXA-10,6.33
same,MIC,[3]; Cefepime + compound (8 μg/mL),32 µg/mL
same,MIC,[3]; Meropenem + compound (8 μg/mL),128 µg/mL
same,MIC,[4]; Cefepime + compound (8 μg/mL),128 µg/mL
same,MIC,[4]; Meropenem + compound (8 μg/mL),128 µg/mL
same,MIC,[5]; Cefepime + compound (8 μg/mL),16 µg/mL
same,MIC,[5]; Meropenem + compound (8 μg/mL),128 µg/mL
same,MIC,[6]; Cefepime + compound (8 μg/mL),1 µg/mL
same,MIC,[6]; Meropenem + compound (8 μg/mL),1 µg/mL
same,MIC of the combination with cefepime/meropenem,[7],> 32 µg/mL
same,pIC50,Ampc,6.07
same,MIC,[8]; Cefepime + compound (8 μg/mL),1 µg/mL
same,MIC,[8]; Meropenem + compound (8 μg/mL),1 µg/mL
same,pIC50,OXA-48,6.46
same,MIC,[9]; Cefepime + compound (8 μg/mL),64 µg/mL
same,MIC,[9]; Meropenem + compound (8 μg/mL),128 µg/mL
